# Starred links: 1 amine or outer side, 2 acyl side, 3 side chain; linkers in the order of their positions; H or OH if unused. Non-standard residues stand in square brackets, D forms with d. Residues, ends and D or L forms follow the SMILES beside them. No end group written: not given here. *: point of attachment. Phe(4-NO2) = N[C@@H](Cc1ccc([N+](=O)[O-])cc1)C(=O)O; Phe(3-F) = N[C@@H](Cc1cccc(F)c1)C(=O)O; Phe(4-F) = N[C@@H](Cc1ccc(F)cc1)C(=O)O; 1Nal = N[C@@H](Cc1cccc2ccccc12)C(=O)O; Phe(2-F) = N[C@@H](Cc1ccccc1F)C(=O)O; pS = N[C@@H](COP(=O)(O)O)C(=O)O; Fumaroyl = O=C(O)/C=C/C(=O)*; Suc = O=C(CCC(=O)[*:2])[*:1]; MeOSuc = COC(=O)CCC(=O)*
# Target: βTrCP (Homo sapiens, UniProt Q9Y297)
# Experiment: Fluorescence polarisation (FP) binding assay with fluorescein-tagged IκB peptide
# Details: FP Assay IC50/μM, Tables 1, 3, 7, 8; 10 nM fluorescein-tagged IκB peptide
# βTrCP, sequence (Q9Y297 whole entry): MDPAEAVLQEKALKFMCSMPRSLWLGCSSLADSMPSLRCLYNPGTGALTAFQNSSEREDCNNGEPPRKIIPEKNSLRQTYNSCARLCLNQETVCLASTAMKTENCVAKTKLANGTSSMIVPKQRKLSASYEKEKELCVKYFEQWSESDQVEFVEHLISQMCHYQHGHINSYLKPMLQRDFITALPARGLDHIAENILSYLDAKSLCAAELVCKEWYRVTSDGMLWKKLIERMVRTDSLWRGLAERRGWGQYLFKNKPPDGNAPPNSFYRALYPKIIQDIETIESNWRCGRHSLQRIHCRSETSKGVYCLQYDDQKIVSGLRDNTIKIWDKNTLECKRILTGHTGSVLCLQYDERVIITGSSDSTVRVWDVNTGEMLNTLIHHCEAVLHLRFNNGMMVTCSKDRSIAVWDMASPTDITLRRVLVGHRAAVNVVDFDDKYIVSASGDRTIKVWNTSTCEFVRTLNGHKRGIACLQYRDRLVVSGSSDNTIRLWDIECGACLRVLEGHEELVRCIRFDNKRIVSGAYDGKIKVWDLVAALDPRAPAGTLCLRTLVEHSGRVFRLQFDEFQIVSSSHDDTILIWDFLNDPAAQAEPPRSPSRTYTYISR
# βTrCP, sequence (P63208 whole entry partner): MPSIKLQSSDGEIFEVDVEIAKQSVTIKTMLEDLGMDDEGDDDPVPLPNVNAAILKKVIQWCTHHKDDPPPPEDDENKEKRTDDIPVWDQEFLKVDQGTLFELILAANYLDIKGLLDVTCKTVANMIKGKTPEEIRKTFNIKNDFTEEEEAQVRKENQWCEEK
row,Molecule,IC50
1,H-DEGFFE-NH2 [DEGFFE-NH2],43.6 µM

# Same assay, conditions: Tables 1, 3, 7, 8; 10 nM fluorescein-tagged IκB peptide; read-out: FP Assay IC50/μM
row,Molecule,IC50
1,CC[C@H](C)[C@H](NC(=O)CNC(=O)[C@H](COP(=O)(O)O)NC(=O)[C@H](CC(=O)O)NC(=O)CN)C(=O)N[C@@H](Cc1c[nH]cn1)C(=O)N[C@@H](CO)C(N)=O [GD-pS-GIHS-NH2] (H-GD[pS]GIHS-NH2),> 100 µM
2,EAGIFE-NH2 [EAGIFE-NH2],> 100 µM
3,C[C@H](NC(=O)[C@H](CCC(=O)O)NC(=O)CCC(=O)O)C(=O)N[C@@H](Cc1cccc(F)c1)C(=O)N[C@@H](Cc1ccc([N+](=O)[O-])cc1)C(=O)N[C@@H](CCC(=O)O)C(N)=O [Suc-EA-F(3F)-F(4NO2)-E-NH2],27.5 µM
4,LDASGIHS-NH2 [LDASGIHS-NH2],> 100 µM
5,CC[C@H](C)[C@H](NC(=O)[C@H](Cc1c[nH]cn1)NC(=O)CNC(=O)[C@H](CO)NC(=O)[C@H](COP(=O)(O)O)NC(=O)[C@H](CC(=O)O)NC(=O)[C@@H](N)CC(C)C)C(=O)N[C@@H](CO)C(N)=O [LD-pS-SGHIS-NH2] (H-LD[pS]SGHIS-NH2),> 100 µM
6,DAGFFE-NH2 [DAGFFE-NH2],> 100 µM
7,NC(=O)[C@H](Cc1cccc(F)c1)NC(=O)[C@H](Cc1ccccc1)NC(=O)CNC(=O)[C@H](CCC(=O)O)NC(=O)CCC(=O)O [Suc-EGF-F(3F)-NH2] (Suc-EGF[Phe(3-F)]-NH2),> 100 µM
8,NC(=O)[C@H](CCC(=O)O)NC(=O)[C@H](Cc1cccc2ccccc12)NC(=O)[C@H](Cc1ccc([N+](=O)[O-])cc1)NC(=O)CNC(=O)[C@@H](N)CCC(=O)O [EG-F(4NO2)-1Nal-E-NH2] (H-EG[Phe(4-NO2)][1Nal]E-NH2),> 100 µM
9,C[C@H](NC(=O)CCC(=O)O)C(=O)NCC(=O)N[C@@H](Cc1ccc(O)cc1)C(=O)N[C@@H](Cc1ccccc1)C(=O)N[C@@H](CCC(=O)O)C(N)=O [Suc-AGYFE-NH2],22.2 µM
10,NC(=O)[C@H](Cc1ccc(F)cc1)NC(=O)[C@H](Cc1ccc(O)cc1)NC(=O)CNC(=O)[C@H](CCC(=O)O)NC(=O)CCC(=O)O [Suc-EGY-F(4F)-NH2] (Suc-EGY[Phe(4-F)]-NH2),71 µM
11,NC(=O)[C@H](Cc1ccc([N+](=O)[O-])cc1)NC(=O)[C@H](Cc1cccc(F)c1)NC(=O)CNC(=O)[C@H](CCC(=O)O)NC(=O)CCC(=O)O [Suc-EG-F(3F)-F(4NO2)-NH2] (Suc-EG[Phe(3-F)][Phe(4-NO2)]-NH2),> 100 µM
12,COC(=O)CCC(=O)N[C@@H](CCC(=O)O)C(=O)NCC(=O)N[C@@H](Cc1cccc(F)c1)C(=O)N[C@@H](Cc1cccc2ccccc12)C(=O)N[C@@H](CCC(=O)O)C(N)=O [(MeO)Suc-EG-F(3F)-1Nal-E-NH2] (MeOSuc-EG[Phe(3-F)][1Nal]E-NH2),1.6 µM
13,C[C@H](NC(=O)CCC(=O)O)C(=O)NCC(=O)N[C@@H](Cc1ccccc1)C(=O)N[C@@H](Cc1ccccc1)C(=O)N[C@@H](CCC(=O)O)C(N)=O [Suc-AGFFE-NH2] (Suc-AGFFE-NH2),> 100 µM
14,NC(=O)[C@H](CCC(=O)O)NC(=O)[C@H](Cc1ccc([N+](=O)[O-])cc1)NC(=O)[C@H](Cc1cccc(F)c1)NC(=O)CNC(=O)[C@H](CCC(=O)O)NC(=O)/C=C/C(=O)O [Fum-EG-F(3F)-F(4NO2)-E-NH2] (Fumaroyl-EG[Phe(3-F)][Phe(4-NO2)]E-NH2),60.4 µM
15,NC(=O)C[C@H](NC(=O)CNC(=O)[C@H](COP(=O)(O)O)NC(=O)[C@@H](N)CC(=O)O)C(=O)N[C@@H](Cc1ccccc1)C(=O)N[C@@H](CCC(=O)O)C(N)=O [D-pS-GNFE-NH2] (H-D[pS]GNFE-NH2),> 100 µM
16,NC(=O)[C@H](CCC(=O)O)NC(=O)[C@H](Cc1cccc2ccccc12)NC(=O)[C@H](Cc1cccc(F)c1)NC(=O)CNC(=O)[C@@H](N)CCC(=O)O [EG-F(3F)-1Nal-E-NH2] (H-EG[Phe(3-F)][1Nal]E-NH2),> 100 µM
17,NC(=O)[C@H](Cc1ccc([N+](=O)[O-])cc1)NC(=O)[C@H](Cc1ccc(O)cc1)NC(=O)CNC(=O)[C@H](CCC(=O)O)NC(=O)CCC(=O)O [Suc-EGY-F(4NO2)-NH2] (Suc-EGY[Phe(4-NO2)]-NH2),91 µM
18,DDASGIHS-NH2 [DDASGIHS-NH2],> 100 µM
19,CC[C@H](C)[C@H](NC(=O)CNC(=O)[C@H](CCC(=O)O)NC(=O)CCC(=O)O)C(=O)N[C@@H](Cc1ccccc1)C(=O)N[C@@H](CCC(=O)O)C(N)=O [Suc-EGIFE-NH2] (Suc-EGIFE-NH2),> 100 µM
20,CC[C@H](C)[C@H](NC(=O)CNC(=O)[C@H](COP(=O)(O)O)NC(=O)[C@H](CC(=O)O)NC(=O)[C@@H](N)C(C)C)C(=O)N[C@@H](Cc1c[nH]cn1)C(=O)N[C@@H](CO)C(N)=O [VD-pS-GIHS-NH2] (H-VD[pS]GIHS-NH2),> 100 µM
21,NC(=O)[C@H](Cc1ccc([N+](=O)[O-])cc1)NC(=O)[C@H](Cc1ccccc1)NC(=O)CNC(=O)[C@H](CCC(=O)O)NC(=O)CCC(=O)O [Suc-EGF-F(4NO2)-NH2] (Suc-EGF[Phe(4-NO2)]-NH2),> 100 µM
22,DAGNFE-NH2 [DAGNFE-NH2],> 100 µM
23,CC[C@H](C)[C@H](NC(=O)CNC(=O)[C@H](C)NC(=O)[C@H](N)CC(=O)O)C(=O)N[C@@H](Cc1ccccc1)C(=O)N[C@@H](CC(=O)O)C(N)=O [dAGIFD-NH2] (H-[dD]AGIFD-NH2),> 100 µM
24,CC[C@H](C)[C@H](NC(=O)CNC(=O)[C@H](CCC(=O)O)NC(=O)[C@H](N)CC(=O)O)C(=O)N[C@@H](Cc1ccccc1)C(=O)N[C@@H](CC(=O)O)C(N)=O [dEGIFD-NH2] (H-[dD]EGIFD-NH2),> 100 µM
25,DAGIHS-NH2 [DAGIHS-NH2],> 100 µM
26,NC(=O)CC[C@H](NC(=O)CCC(=O)O)C(=O)NCC(=O)N[C@@H](Cc1ccc(O)cc1)C(=O)N[C@@H](Cc1ccccc1)C(=O)N[C@@H](CCC(=O)O)C(N)=O [Suc-QGYFE-NH2],10.7 µM
27,CC[C@H](C)[C@H](NC(=O)CNC(=O)[C@H](COP(=O)(O)O)NC(=O)[C@@H](N)CCC(=O)O)C(=O)N[C@@H](Cc1ccccc1)C(=O)N[C@@H](CCC(=O)O)C(N)=O [E-pS-GIFE-NH2] (H-E[pS]GIFE-NH2),34.5 µM
28,NC(=O)[C@H](Cc1cccc(F)c1)NC(=O)[C@H](Cc1ccccc1F)NC(=O)CNC(=O)[C@H](CCC(=O)O)NC(=O)CCC(=O)O [Suc-EG-F(2F)-F(3F)-NH2] (Suc-EG[Phe(2-F)][Phe(3-F)]-NH2),> 100 µM
29,C[C@H](NC(=O)CCC(=O)O)C(=O)NCC(=O)N[C@@H](Cc1cccc(F)c1)C(=O)N[C@@H](Cc1ccc([N+](=O)[O-])cc1)C(=O)N[C@@H](CCC(=O)O)C(N)=O [Suc-AG-F(3F)-F(4NO2)-E-NH2] (Suc-AG[Phe(3-F)][Phe(4-NO2)]E-NH2),8.01 µM
